Values joined by “and” are separate entries in the source; they are usually repeats but may differ in a detail not shown here. Equal values may be shown once.
Test system: GUMC-403
Assay: viability at highest tested concentration (max response) relative to DMSO (% of DMSO control); higher = less cytotoxic
Settings: library / dose series: MIPE library, 11-point 1:3 dilution; top concentration 23 µM; 48 h
Outline: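 In 1536-well plates, 700 GUMC-403 papilloma cells per well, taken from a patient and grown by conditional reprogramming, were seeded in 5 μL F + Y medium and incubated overnight at 37 °C. Compounds were pinned in at 23 nL in an 11-point 1:3 series, and left for 48 h before CellTiter-Glo luminescence was read on a ViewLux against vehicle (100%) and empty (0%) wells. Reported values are viability at the highest tested concentration relative to vehicle control.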

Compound	viability
CN1CCCN(CC1)C2=CC=C3C(=O)\C(=C/4SC5=C(C=CC=C5)N4C3=N2)C(=O)NCC6=CN=C(C)C=N6	101
O=C1NC(=O)/C(=C/c2ccc3nccnc3c2)S1	49.8

Same assay, conditions: library / dose series: MIPE library, 11-point 1:3 dilution; top concentration 46.1 µM; 48 h

Compound	viability
O=C(Nc1nnc(-c2ccco2)o1)c1cc(-c2ccccc2)nc2ccccc12	89.1
CCOC(CN1C(=O)[C@](CC(=O)Nc2ccc(C)cc2)(NC(=O)Nc2ccc(C)cc2)c2ccccc21)OCC	129
CC(C)NCC(O)c1ccc(O)c(O)c1 (stereo not given)	127
CN(C)c1ccccc1CN1CCCN(Cc2ccccc2N(C)C)C1c1ccncc1	97.4
CN(C)CCc1c[nH]c2ccc(C[S+](=O)([O-])N3CCCC3)cc12	78.5
COc1ccc(-n2c(C)c([N+](=O)[O-])c3ccc(O)cc32)cc1	87
NC(=O)c1ncn([C@@H]2O[C@H](CO)[C@@H](O)[C@H]2O)c1N	118
Nc1ccccc1NC(=O)c1ccc(CNc2nccc(-c3cccnc3)n2)cc1	85.9
Cc1cc(SCc2sc(-c3ccc(C(F)(F)F)cc3)nc2C)ccc1OCC(=O)O	133
CC(=O)[C@H]1CC[C@H]2[C@@H]3C/C=C4/C[C@@H](O)CC[C@]4(C)[C@H]3CC[C@]12C	115
COCCCC/C(=N\OCCN)c1ccc(C(F)(F)F)cc1	90
c1ccc(CCCN2CCN(CCOC(c3ccccc3)c3ccccc3)CC2)cc1	88.7
CC(C(C)N1CC(=O)NC(=O)C1)N1CC(=O)NC(=O)C1 (stereo not given)	109
COc1cc(N2CCC(N3CCN(C)CC3)CC2)ccc1Nc1ncc(Cl)c(Nc2ccccc2[S+](=O)([O-])C(C)C)n1	73.5
CC(C)[C@H](CO)Nc1nc(Nc2ccc(C(=O)O)c(Cl)c2)c2ncn(C(C)C)c2n1	75.1
CCCNC(=O)[C@H]1O[C@@H]1C(=O)N[C@H](C(=O)N1CCC[C@H]1C(=O)OC)C(C)CC (stereo not given in full)	109
[NH2][Pt]([NH2])([Cl])[Cl]	128
Nc1nc(-c2nn(Cc3ccccc3F)c3ncccc23)nc(N)c1N1CCOCC1	111
COc1ccc2c(OCc3nnc4ccc(-c5ccccc5)nn34)ccnc2c1	126
CC(=O)O[C@@]1(CC[C@H]2[C@@H]3\C=C(C)/C4=C/C(=O)CC[C@]4(C)[C@H]3CC[C@]12C)C(C)=O	127
Cc1ccc(C)c(OCCCC(C)(C)C(=O)O)c1	108
CC[C@H](CC[C@@H](C)[C@H]1CC[C@H]2[C@@H]3C\C=C/4C[C@@H](O)CC[C@]4(C)[C@H]3CC[C@]12C)C(C)C	101
CCc1cc(/C(C)=N/OCc2ccc(C3CCCCC3)c(C(F)(F)F)c2)ccc1CN1CC(C(=O)O)C1	116
CSC1=CC(=CC=C1)NC2=NC3=C(C=N2)/C=C(C(=O)N3C)/C4=C(Cl)C=CC=C4Cl	107
CN(C)CCCNC(=O)c1ccc(-c2cc(O)c3ncccc3c2)cc1	120
Clc1ccc(-c2nc3sccn3c2/C=N/OCc2ccc(Cl)c(Cl)c2)cc1	85.8

Compound	viability
CN[S+](=O)([O-])Cc1ccc2[nH]cc(CCN(C)C)c2c1	126
O=c1[nH]c(=O)n([C@H]2C[C@H](O)[C@@H](CO)O2)cc1/C=C/Br	116
CC(C)OC(=O)OCOP(=O)(CO[C@H](C)Cn1cnc2c(N)ncnc21)OCOC(=O)OC(C)C.O=C(O)C=CC(=O)O	118 and 94.5
CCCCCCCN(CC)CCCC(O)c1ccc(NS(C)(=O)=O)cc1.CCCCCCCN(CC)CCCC(O)c1ccc(NS(C)(=O)=O)cc1.O=C(O)/C=C/C(=O)O (stereo not given)	106
CN1CCc2c(n(Cc3ccc(C(=O)NO)cc3)c3ccccc23)C1	107
O=C(CCCN1CCN(c2ccc(F)cc2)CC1)NC1c2ccccc2CSc2ccccc21 (stereo not given)	93.5
CCOC(=O)[C@@H](N)Cc1ccc(-c2cc(O[C@H](c3ccc(Cl)cc3-n3ccc(C)n3)C(F)(F)F)nc(N)n2)cc1.O=C(O)CNC(=O)c1ccccc1	117
CCCCOCCOc1nc(-c2ccc(C(=O)O)c(F)c2)sc1C	105
O=NN(CCCl)C(=O)NC1CCCCC1	124
CCN1CCCC1CNC(=O)c1cc(S(=O)(=O)CC)c(N)cc1OC (stereo not given)	119
ClC1=C(N\C2=N\CCN2)C3=NSN=C3C=C1	129
C=CC(=O)N1CCC[C@@H](n2nc(-c3ccc(Oc4ccccc4)cc3)c3c(N)ncnc32)C1	83.3
CNC(=O)c1ccc(N2C(=S)N(c3ccc(C#N)c(C(F)(F)F)c3)C(=O)C2(C)C)cc1F	119
C[N]1C=C(C=N1)C2=C3\C=N/NC(=O)C4=C3C(=CC(=C4)NC(=O)[C@H](N)C5CCCCC5)[NH]2	100
CN[C@@H](C)C(=O)N[C@H]1CCCC[C@H]2CC[C@@H](C(=O)N[C@@H](c3ccccc3)c3cn(CCCCc4ccc(CCCCn5cc([C@@H](NC(=O)[C@@H]6CC[C@@H]7CCCC[C@H](NC(=O)[C@H](C)NC)C(=O)N76)c6ccccc6)nn5)cc4)nn3)N2C1=O	110
COC1=C2OC(=O)\C=C/C2=CC3=C1OC=C3	102
COc1cc2nccc(Oc3ccc(NC(=O)C4(C(=O)Nc5ccc(F)cc5)CC4)cc3)c2cc1OC	63.3
CC(NCCc1ccc(O)cc1)C(O)c1ccc(O)cc1 (stereo not given)	124
COc1cc2nccc(Oc3ccc(NC(=O)NC4CC4)c(Cl)c3)c2cc1C(N)=O	89.9
CN1CCN(CC1)C/2=N/C3=CC=CC=C3NC4=C2C=C(C)S4	117
C#C[C@]1(O)CC[C@H]2[C@@H]3CCc4cc(OC)ccc4[C@H]3CC[C@@]21C	88.2
CC1=CC(=CC(=C1C\C2=N\CCN2)C)C(C)(C)C	130
CN(C)c1nc(N(C)C)nc(N(C)C)n1	95.4
Cc1ccc([S+](=O)([O-])Nc2cc(Cl)ccc2C(=O)Nc2nc(-c3ccccc3)cs2)cc1	104
CN(C)CCN(C)CCc1ccc(Cl)c(Cl)c1	124
O=C(Nc1ccc(OC(F)(F)F)cc1)c1sccc1NCc1ccnc2ccccc12	91.2

Compound	viability
Oc1ccc(C2CCN(c3ccnc4ccccc34)CC2)cc1O	92.8
C[C@@H](O)[C@@H]1[C@H]2[C@@H](C)\C(=C(/N2C1=O)C(=O)OCOC(=O)C(C)(C)C)SC3CN(C3)/C4=N/CCS4	78.1
CCCCc1ccc(N[S+](=O)([O-])c2ccc(C)c(C(=O)N3CCN(c4cccc(C)c4C)CC3)c2)cc1	111
OC(COC1=C2C(=O)\C=C(/OC2=CC=C1)C([O-])=O)COC3=C4C(=O)\C=C(/OC4=CC=C3)C([O-])=O	113
COc1ccc2c(c1)c(CC(=O)OCC(=O)O)c(C)n2C(=O)c1ccc(Cl)cc1	90.3
CN(C)[C@H]\1[C@@H]2[C@@H](O)[C@H]3\C(=C(O)/[C@]2(O)C(=O)\C(=C1O)C(N)=O)C(=O)C4=C(C=CC=C4O)[C@@]3(C)O	114
NC12CC3CC(CC(C3)C1)C2	136
O=C(Nc1cc(Cl)cc2c1[nH]c1cnccc12)c1cccnc1	56.8
NC(=O)N1c2ccccc2CC(=O)c2ccccc21	111
C[S+](=O)([O-])c1ccc(C(=O)Nc2ccc(Cl)c(-c3ccccn3)c2)c(Cl)c1	100
C=CCn1c(=O)c2cnc(Nc3ccc(N4CCN(C)CC4)cc3)nc2n1-c1cccc(C(C)(C)O)n1	63.1
C[C@@H]1C[C@H]2[C@@H]3\C=C(C)/C4=C/C5=C(C[C@]4(C)[C@H]3[C@@H](O)C[C@]2(C)[C@@]1(O)C(=O)CO)C=N[N]5C6=CC=CC=C6	125
COc1cc(C(C)=O)ccc1OCCCN1CCC(c2noc3cc(F)ccc23)CC1	102
CCC(C1CCC(C)C(O1)C(C)C(O)C(C)C(=O)C(CC)C2OC\3(O[C@]4(CC[C@@](C)(O4)C5CC[C@@](O)(CC)C(C)O5)C(O)\C=C3)C(C)CC2C)C([O-])=O (stereo not given in full)	76
CC[C@@]1(O)C(=O)OCC/2=C1/C=C3\N(CC4=CC5=CC(=CC=C5N=C34)O)C2=O	42.5
CO[C@H]1C[C@@H]2CC[C@@H](C)[C@@](O)(O2)C(=O)C(=O)N2CCCC[C@H]2C(=O)O[C@H]([C@H](C)C[C@@H]2CC[C@@H](OCCO)[C@H](OC)C2)CC(=O)[C@H](C)/C=C(/C)[C@@H](O)[C@@H](OC)C(=O)[C@H](C)C[C@H](C)\C=C/C=C\C=C/1C	84.8
C=C[C@H]1CN2CCC1C[C@H]2[C@H](O)c1ccnc2ccccc12 (stereo not given in full)	101
CN(C)C(=O)COC(=O)Cc1ccc(OC(=O)c2ccc(NC(=N)N)cc2)cc1	62.7
CC[C@H]1OC(=O)[C@H](C)[C@@H](O[C@H]2C[C@@](C)(OC)[C@@H](O)[C@H](C)O2)[C@H](C)[C@@H](O[C@@H]2O[C@@H](C)C[C@H](N(C)C)[C@H]2O)[C@](C)(O)C[C@@H](C)C(=O)[C@H](C)[C@@H](O)[C@]1(C)O	116
CC(C)OC(=O)/C1=C/N(CC(C)(C)C2=C1[NH]C3=CC=CC=C23)C(=O)C4=CC=C(F)C(=C4)F	107
O=C1C(CCC(O)c2ccc(F)cc2)C(c2ccc(O)cc2)N1c1ccc(F)cc1 (stereo not given)	94.9
O=c1cc(O)c(Cl)c[nH]1	106
CCCCc1ccc2[nH]c(NC(=O)OC)nc2c1	112
CC1=C(CC(=O)O)c2cc(F)ccc2/C1=C\c1ccc([S+](C)[O-])cc1 (stereo not given)	59.8
COc1cc2c(N3CCN(C(=O)Nc4ccc(OC(C)C)cc4)CC3)ncnc2cc1OCCCN1CCCCC1	109

Same assay, conditions: library / dose series: MIPE library, 11-point 1:3 dilution; top concentration 92.2 µM; 48 h

Compound	viability
CC(=O)Oc1ccccc1C(=O)Nc1ncc([N+](=O)[O-])s1	82.2
